Source: patent publication US6355799B1, “Substituted benzene compounds, process for their preparation, and herbicidal and defoliant compositions containing them” (ISK Americas Incorporated, priority 1997, dated 2002)

Tests used:
Type in all cases: in vivo
[1] = test system: sicklepod (Cassia obtusifolia, CASOB); assay: Pre-emerge test, greenhouse herbicide activity screening; conditions: pre-emerge, 14 days after application, rating scale 0-100
How it was run: (§1)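 Herbicidal damage is scored 0 (none) to 100 (complete plant death) two weeks after a simulated field spray. Rates span 15–1000 g ai/ha, delivered in acetone at 187 l/ha. For post-emergence treatments, plants have 2–3 leaves and the spray carries 0.25% v/v non-ionic surfactant.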

[2] = test system: green foxtail (Setaria viridis, SETVI); assay: as above; conditions: pre-emerge, 14 days after application, rating scale 0-100
How it was run: as §1

[3] = test system: lambsquarters (Chenopodium album, CHEAL); assay: as above; conditions: pre-emerge, 14 days after application, rating scale 0-100
How it was run: as §1

[4] = test system: large crabgrass (Digitaria sanguinalis, DIGSA); assay: as above; conditions: pre-emerge, 14 days after application, rating scale 0-100
How it was run: as §1

[5] = test system: ivyleaf morningglory (Ipomoea hederacea, IPOHE); assay: as above; conditions: pre-emerge, 14 days after application, rating scale 0-100
How it was run: as §1

[6] = test system: johnsongrass (Sorghum halepense, SORHA); assay: as above; conditions: pre-emerge, 14 days after application, rating scale 0-100
How it was run: as §1

[7] = test system: barnyardgrass (Echinochloa crus-galli, ECHCG); assay: as above; conditions: pre-emerge, 14 days after application, rating scale 0-100
How it was run: as §1

[8] = test system: velvetleaf (Abutilon theophrasti, ABUTH); assay: as above; conditions: pre-emerge, 14 days after application, rating scale 0-100
How it was run: as §1

[9] = test system: field corn (Zea mays L., var. Dekalb 535, CORN); assay: Post-emerge test, crop safety; conditions: post-emerge, 14 days after application, rating scale 0-100
How it was run: as §1

[10] = test system: upland rice (Oryza sp., var. Tebonnet, RICE); assay: Post-emerge test, crop safety; conditions: post-emerge, 14 days after application, rating scale 0-100
How it was run: as §1

[11] = test system: field corn (Zea mays L., var. Dekalb 535, CORN); assay: Pre-emerge test, crop safety; conditions: pre-emerge, 14 days after application, rating scale 0-100
How it was run: (§2)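 Plants grown in 10 cm pots of sandy loam mix received acetone-dissolved compounds through a moving flat-fan nozzle. Doses ranged from 15 to 1000 g ai/ha. Pre-emerge pots were seeded one day earlier, post-emerge pots 8–21 days earlier. Fourteen days on, each pot was graded 0–100 for damage.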

[12] = test system: upland rice (Oryza sp., var. Tebonnet, RICE); assay: Pre-emerge test, crop safety; conditions: pre-emerge, 14 days after application, rating scale 0-100
How it was run: as §2

[13] = test system: sicklepod (Cassia obtusifolia, CASOB); assay: Post-emerge test, greenhouse herbicide activity screening; conditions: post-emerge, 14 days after application, rating scale 0-100
How it was run: (§3)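 Compounds in acetone were track-sprayed at 15-1000 g ai/ha (187 l/ha) on sandy loam pots: pre-emerge one day after seeding, post-emerge at 2-3 leaf stage with 0.25% v/v non-ionic surfactant. Phytotoxicity was rated 14 days later on a 0 (no damage) to 100 (complete death) scale.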

[14] = test system: green foxtail (Setaria viridis, SETVI); assay: as above; conditions: post-emerge, 14 days after application, rating scale 0-100
How it was run: as §3

[15] = test system: lambsquarters (Chenopodium album, CHEAL); assay: as above; conditions: post-emerge, 14 days after application, rating scale 0-100
How it was run: as §3

[16] = test system: redroot pigweed (Amaranthus retroflexus, AMARE); assay: as above; conditions: post-emerge, 14 days after application
How it was run: as §3

[17] = test system: large crabgrass (Digitaria sanguinalis, DIGSA); assay: as above; conditions: post-emerge, 14 days after application, rating scale 0-100
How it was run: as §3

[18] = test system: ivyleaf morningglory (Ipomoea hederacea, IPOHE); assay: as above; conditions: post-emerge, 14 days after application, rating scale 0-100
How it was run: as §3

[19] = test system: johnsongrass (Sorghum halepense, SORHA); assay: as above; conditions: post-emerge, 14 days after application, rating scale 0-100
How it was run: as §3

[20] = test system: barnyardgrass (Echinochloa crus-galli, ECHCG); assay: as above; conditions: post-emerge, 14 days after application, rating scale 0-100
How it was run: as §3

[21] = test system: velvetleaf (Abutilon theophrasti, ABUTH); assay: as above; conditions: post-emerge, 14 days after application, rating scale 0-100
How it was run: as §3

[22] = test system: redroot pigweed (Amaranthus retroflexus, AMARE); assay: Pre-emerge test, greenhouse herbicide activity screening; conditions: pre-emerge, 14 days after application, rating scale 0-100
How it was run: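 Visual ratings on a 0-100 scale (0 no damage, 100 all plants dead) were taken at 14 days after treatment. Rates of 15-1000 g ai/ha in acetone, 187 l/ha, were sprayed onto soil one day after planting (pre-emerge) or onto 2-3 leaf plants with 0.25% v/v surfactant (post-emerge).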

COc1cc(Cl)cc(Cl)c1-n1c(=O)cc(C(F)(F)F)n(C)c1=O [16-2]
75: phytotoxicity rating ABUTH ([8]; 63 g ai/ha)
10: phytotoxicity rating SETVI ([2]; 63 g ai/ha) | phytotoxicity rating IPOHE ([5]; 63 g ai/ha) | phytotoxicity rating ECHCG ([7]; 250 g ai/ha) | Post-emerge Herbicidal Activity CORN (crop damage rating) ([9]; 250 g ai/ha) | Post-emerge Herbicidal Activity CASOB (phytotoxicity rating) ([13]; 250 g ai/ha)
20: Post-emerge Herbicidal Activity RICE (crop damage rating) ([10]; 250 g ai/ha)
60: phytotoxicity rating CASOB ([1]; 250 g ai/ha) | phytotoxicity rating SETVI ([2]; 250 g ai/ha) | Post-emerge Herbicidal Activity AMARE (phytotoxicity rating) ([16]; 63 g ai/ha, rating scale 0-100 (0 no damage, 100 complete death)) | Post-emerge Herbicidal Activity AMARE (phytotoxicity rating) ([16]; 250 g ai/ha, rating scale 0-100)
30: phytotoxicity rating SORHA ([6]; 250 g ai/ha) | Post-emerge Herbicidal Activity CHEAL (phytotoxicity rating) ([15]; 63 g ai/ha)
70: Post-emerge Herbicidal Activity CHEAL (phytotoxicity rating) ([15]; 250 g ai/ha) | Post-emerge Herbicidal Activity ABUTH (phytotoxicity rating) ([21]; 250 g ai/ha)
50: phytotoxicity rating DIGSA ([4]; 250 g ai/ha) | phytotoxicity rating IPOHE ([5]; 250 g ai/ha)
80: phytotoxicity rating CHEAL ([3]; 63 g ai/ha)
0: phytotoxicity rating CASOB ([1]; 63 g ai/ha) | phytotoxicity rating DIGSA ([4]; 63 g ai/ha) | phytotoxicity rating SORHA ([6]; 63 g ai/ha) | phytotoxicity rating ECHCG ([7]; 63 g ai/ha) | Post-emerge Herbicidal Activity CORN (crop damage rating) ([9]; 63 g ai/ha) | Post-emerge Herbicidal Activity RICE (crop damage rating) ([10]; 63 g ai/ha) | phytotoxicity rating CORN ([11]; 63 g ai/ha) | phytotoxicity rating CORN ([11]; 250 g ai/ha) | phytotoxicity rating RICE ([12]; 63 g ai/ha) | phytotoxicity rating RICE ([12]; 250 g ai/ha) | Post-emerge Herbicidal Activity CASOB (phytotoxicity rating) ([13]; 63 g ai/ha) | Post-emerge Herbicidal Activity SETVI (phytotoxicity rating) ([14]; 63 g ai/ha) | Post-emerge Herbicidal Activity SETVI (phytotoxicity rating) ([14]; 250 g ai/ha) | Post-emerge Herbicidal Activity DIGSA (phytotoxicity rating) ([17]; 63 g ai/ha) | Post-emerge Herbicidal Activity DIGSA (phytotoxicity rating) ([17]; 250 g ai/ha) | Post-emerge Herbicidal Activity IPOHE (phytotoxicity rating) ([18]; 63 g ai/ha) | Post-emerge Herbicidal Activity IPOHE (phytotoxicity rating) ([18]; 250 g ai/ha) | Post-emerge Herbicidal Activity SORHA (phytotoxicity rating) ([19]; 63 g ai/ha) | Post-emerge Herbicidal Activity SORHA (phytotoxicity rating) ([19]; 250 g ai/ha) | Post-emerge Herbicidal Activity ECHCG (phytotoxicity rating) ([20]; 63 g ai/ha) | Post-emerge Herbicidal Activity ECHCG (phytotoxicity rating) ([20]; 250 g ai/ha)
100: phytotoxicity rating CHEAL ([3]; 250 g ai/ha) | phytotoxicity rating ABUTH ([8]; 250 g ai/ha) | phytotoxicity rating AMARE ([22]; 250 g ai/ha)
40: Post-emerge Herbicidal Activity ABUTH (phytotoxicity rating) ([21]; 63 g ai/ha) | phytotoxicity rating AMARE ([22]; 63 g ai/ha)
